What all share (type): cell-based
The test system of experiment [1] is mouse bone marrow-derived macrophages. Briefly: Cell proliferation assay (WST-8), mouse bone marrow-derived macrophages. Conditions: for IC50: means ± range (n = 2) or standard deviation (n > 2), DMSO less than 1%. As to the method: (§1) We used THP-1 (a human monocytic leukemia cell line), L929 (a mouse fibroblast cell line), RAW264.7 (a mouse macrophage cell line), and mouse bone marrow-derived macrophages cultured in a flask or plate at 37°C, under a humidified atmosphere of 5% CO2 in air. THP-1 and L929 were obtained from Japan Health Science Foundation. RAW264.7 was purchased from DS Pharma Biomedical Co., Ltd. These cells were cultured in RPMI1640 + 10% FCS consisting of RPMI1640 [+] L-glutamine (Gibco) supplemented with antibiotics (penicillin and streptomycin; Gibco) and 10% fetal calf serum (FCS; Biowest). In cell proliferation assays, they were cultured in flat-bottomed 96-well plates (Corning) in 100 μl/well at a concentration of 1 x 10^5/ml with or without test samples. In the case of mouse peritoneal cells, we employed 1 x 10^6/ml as a cell concentration. After finishing the culture, we added 10 μl of a coloring reagent, WST-8 (Kishida Chemical Co.), which converts to water-soluble colored formazan by the action of a mitochondrial enzyme. Cells were additionally incubated with WST-8 for 3 h and the coloring reaction was stopped by adding 10 μl of 0.1% sodium dodecyl sulfate (SDS) solution. The absorbance of each well was then measured at 450 nm with a Multiskan Ascent plate reader (Labsystems). In principle, we performed cell proliferation assays in duplicate. Half-maximal (50%) inhibitory concentration (IC50) of each test sample was calculated according to the reported formula [15].
(§2) We examined the inhibitory activities of food constituents in cell proliferation assays. Test compounds used in the assays were as follows: curcumin (Wako or Sigma-Aldrich), zerumbone (Wako), genistein (Sigma-Aldrich), chalcone (Wako), corosolic acid (Wako), carnosol (Wako), ursolic acid (Wako), epigallocatechin (Sigma-Aldrich), isoflavone (Wako), apigenin (Wako), chrysin (Wako), flavanone (Wako), resveratrol (Wako), flavone (Wako), quercetin (Wako), daidzein (Wako), and clodronate (Sigma-Aldrich). These compounds were firstly dissolved with dimethyl sulfoxide (DMSO; Wako) and then appropriately diluted with RPMI1640 + 10% FCS to apply the assays. The final concentration of DMSO was adjusted not to exceed 1% at most in cell cultures.
A general note: Tetrazolium dyes change colour on reduction, which living cells bring about.

The test system of experiment [2] is L929 (a mouse fibroblast cell line). Description: Cell proliferation assay (WST-8), L929. Conditions: for IC50: means ± range (n = 2) or standard deviation (n > 2), DMSO less than 1%. As to the method:
as §1, §2

Experiment [3] concerns THP-1 (a human monocytic leukemia cell line). Briefly: Cell proliferation assay (WST-8), THP-1. Conditions: for IC50: DMSO less than 1%. The protocol: as §1, §2
The test system of experiment [4] is RAW264.7 (a mouse macrophage cell line). Briefly: Cell proliferation assay (WST-8), RAW264.7. As to conditions: cultured for 3 days. The protocol:
as §1, with “In the case of mouse peritoneal cells, we employed 1 x 10^6/ml as a cell concentration. After finishing the culture, we added 10 μl of a coloring reagent, WST-8 (Kishida Chemical Co.), which converts to water-soluble colored formazan by the action of a mitochondrial enzyme. Cells were additionally incubated with WST-8 for 3 h and the coloring reaction was stopped by adding 10 μl of 0.1% sodium dodecyl sulfate (SDS) solution.” left out, “In principle, we performed cell proliferation assays in duplicate.” left out
After culturing, they were incubated with WST-8 for 3 h to assess viable cells in the culture. Resultant coloring reaction by WST-8 was measured with a plate-reader at the absorbance of 450 nm. In the vertical axis, the absorbance of only the medium was defined as 0%. Symbols in the Figure represent the percentage of absorbance with curucmin or liposomes to that without the test samples. […]

Setting [5] is: Homo sapiens, THP-1, means ± range (n = 2) or standard deviation (n > 2).
[6] abbreviates: means ± range (n = 2) or standard deviation (n > 2).

SMILES strings stand for the structures.

What is called IC50 is the concentration that gives 50% inhibition. `O=c1cc(-c2ccc(O)cc2)oc2cc(O)cc(O)c12` [Apigenin, apigenin]: the IC50 is 70 ± 19.8 µM in experiment [1] (Mus musculus, Macrophage); 46.4 ± 3.3 µM in experiment [2] (Mus musculus, L929); 37.9 ± 3.9 µM in experiment [3] (setting [5]).
As for `CC(C)c1cc2c(c(O)c1O)[C@@]13CCCC(C)(C)[C@@H]1C[C@@H]2OC3=O` [Carnosol, carnosol], the IC50 in experiment [1] (Mus musculus, Macrophage) was 63.8 ± 5.5 µM; in experiment [2] (Mus musculus, L929), 50.1 ± 2.6 µM; in experiment [3] (setting [5]), < 30 µM; in experiment [3] (setting [6]), 20.5 ± 2.7 µM.
In the case of `O=C(/C=C/c1ccccc1)c1ccccc1` [Chalcone, chalcone], the IC50 in experiment [1] (Mus musculus, Macrophage) was 104 µM; in experiment [2] (Mus musculus, L929), 69.5 ± 1.2 µM; in experiment [3] (setting [5]), < 30 µM; in experiment [3] (setting [6]), 17.4 ± 1.8 µM.
`O=c1cc(-c2ccccc2)oc2cc(O)cc(O)c12` [Chrysine, chrysin]: the half-inhibitory concentration (IC50) amounted to 58.2 µM in experiment [1] (Mus musculus, Macrophage); 76.3 ± 11 µM in experiment [2] (Mus musculus, L929); 46.8 ± 2.8 µM in experiment [3] (setting [5]).
Turning to `O=P(O)(O)C(Cl)(Cl)P(=O)(O)O` [Clodronate, clodronate, reference compound], the “Inhibition of mouse bone marrow-derived macrophage proliferation (in words)” value in experiment [1] is given as “comparable strong activity”. Besides, the IC50 in experiment [1] (Mus musculus, Macrophage) was 25.7 ± 15.6 µM; in experiment [2] (Mus musculus, L929), 336 ± 54.9 µM; in experiment [3] (setting [5]), > 400 µM. The “Inhibition of L929 cell proliferation (in words)” value in experiment [2] is “weaker activity”. In addition, the “Inhibition of THP-1 cell proliferation (in words)” value in experiment [3] was “weaker activity”.
As for `C[C@H]1[C@H](C)CC[C@]2(C(=O)O)CC[C@]3(C)C(=CC[C@@H]4[C@@]5(C)C[C@@H](O)[C@H](O)C(C)(C)[C@@H]5CC[C@]43C)[C@H]12` [Corosolic acid, corosolic acid], the IC50 in experiment [1] (Mus musculus, Macrophage) was 19.6 ± 0.6 µM; in experiment [2] (Mus musculus, L929), 17.7 ± 0.2 µM; in experiment [3] (setting [5]), < 30 µM; in experiment [3] (setting [6]), 18.2 ± 0.2 µM.
In the case of `COc1cc(/C=C/C(=O)CC(=O)/C=C/c2ccc(O)c(OC)c2)ccc1O` [Curcumin, diferuloylmethane], the IC50 in experiment [1] (Mus musculus, Macrophage) is 22.4 ± 3.6 µM; in experiment [2] (Mus musculus, L929), 22.8 ± 10.8 µM; in experiment [3] (setting [6]), 13 ± 3.2 µM; in experiment [3] (means ± range (n = 2) or standard deviation (n > 2), listed as curcumin), < 30 µM. For the same compound, the “Inhibition of RAW264.7 cell proliferation (in words)” value in experiment [4] is reported as “dose-dependent inhibition”. In addition, the “Inhibition of THP-1 cell proliferation (in words)” value in experiment [3] is reported as “dose-dependent inhibition”.
As for `O=c1c(-c2ccc(O)cc2)coc2cc(O)ccc12` [Daidzein, daidzein], the IC50 was 65.1 ± 33.5 µM in experiment [1] (Mus musculus, Macrophage); 220 ± 57.9 µM in experiment [2] (Mus musculus, L929); > 400 µM in experiment [3] (setting [5]).
The like results for `Oc1cc(O)c2c(c1)O[C@H](c1cc(O)c(O)c(O)c1)[C@H](O)C2` [Epigallocatechin, epigallocatechin] were, in that order, 157 ± 19.9 µM, 40.1 ± 3.7 µM and 37 ± 29.6 µM.
As to `O=C1CC(c2ccccc2)Oc2ccccc21` (stereo not drawn) [Flavanone, flavanone], the IC50 in experiment [1] is 225 ± 66.1 µM; in experiment [2], 211 ± 29.6 µM; in experiment [3] (setting [6]), 55.1 ± 10.9 µM.
Consider `O=c1cc(-c2ccccc2)oc2ccccc12` [Flavone, flavone], for which the IC50 turned out to be 180 µM in experiment [1] (Mus musculus, Macrophage); 34.5 ± 3.4 µM in experiment [2] (Mus musculus, L929); 86.9 ± 4.1 µM in experiment [3] (setting [5]).
`O=c1c(-c2ccc(O)cc2)coc2cc(O)cc(O)c12` [Genistein, genistein]: the IC50 was 29 ± 21.5 µM in experiment [1] (Mus musculus, Macrophage); 28.2 ± 7.5 µM in experiment [2] (Mus musculus, L929); < 30 µM in experiment [3] (setting [5]); 16 ± 6.1 µM in experiment [3] (setting [6]).
For `O=c1c(-c2ccccc2)coc2ccccc12` [Isoflavone, isoflavone], the IC50 was found to be 106 ± 7.8 µM in experiment [1] (Mus musculus, Macrophage); 65.5 ± 3.6 µM in experiment [2] (Mus musculus, L929); 37.6 ± 11.6 µM in experiment [3] (setting [5]).
Take `O=c1c(O)c(-c2ccc(O)c(O)c2)oc2cc(O)cc(O)c12` [Quercetin, quercetin]: the IC50 in experiment [1] (Mus musculus, Macrophage) was 126 ± 83.4 µM; in experiment [2] (Mus musculus, L929), 117 ± 32.5 µM; in experiment [3] (setting [5]), 125 ± 24.1 µM.
For `Oc1ccc(/C=C/c2cc(O)cc(O)c2)cc1` [Resveratrol, resveratrol], the IC50 in experiment [1] (Mus musculus, Macrophage) was 77.2 ± 13 µM; in experiment [2] (Mus musculus, L929), 84.8 ± 29.1 µM; in experiment [3] (setting [5]), 64.6 ± 8.5 µM.
Consider `C[C@H]1[C@H](C)CC[C@]2(C(=O)O)CC[C@]3(C)C(=CC[C@@H]4[C@@]5(C)CC[C@H](O)C(C)(C)[C@@H]5CC[C@]43C)[C@H]12` [Ursolic acid, ursolic acid], for which the IC50 in experiment [1] (Mus musculus, Macrophage) was 16.3 ± 4.5 µM; in experiment [2] (Mus musculus, L929), 30.7 ± 0.8 µM; in experiment [3] (setting [5]), < 30 µM; in experiment [3] (setting [6]), 24.6 ± 3.4 µM.
Regarding `C/C1=C\CC(C)(C)/C=C/C(=O)/C(C)=C/CC1` [Zerumbone, zerumbone], the IC50 in experiment [1] (Mus musculus, Macrophage) is 32.1 µM; in experiment [2] (Mus musculus, L929), 30.4 ± 0.1 µM; in experiment [3] (setting [5]), < 30 µM; in experiment [3] (setting [6]), 16 ± 0.5 µM.

The values above are taken from paper PMC4567266 (PLoS ONE, 2015).
